From PubChem BioAssay (NCI)
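Step 1: Grow cells in 96-well plates. Step 2: Expose to compound for 48 hours at 5 concentrations. Step 3: Interpolate endpoints linearly; if unreached, use highest concentration. The concentration for 50% growth inhibition is given as GI50. Definition used: TGI = concentration required for complete inhibition of growth.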

How the values were obtained:
Test in all cases: NCI-60 cell line screen, 48 h
NCI-H23 lung = tested on: NCI-H23 lung
786-0 renal = tested on: 786-0 renal
SF-539 CNS = tested on: SF-539 CNS
BT-549 breast = tested on: BT-549 breast
MDA-MB-231 breast = tested on: MDA-MB-231 breast
RXF 393 renal = tested on: RXF 393 renal
OVCAR-4 ovarian = tested on: OVCAR-4 ovarian
NCI-H522 lung = tested on: NCI-H522 lung
SR leukemia = tested on: SR leukemia
SK-MEL-28 melanoma = tested on: SK-MEL-28 melanoma

Row | SMILES | GI50 (NCI-H23 lung) | TGI (NCI-H23 lung) | GI50 (786-0 renal) | TGI (786-0 renal) | GI50 (SF-539 CNS) | TGI (SF-539 CNS) | GI50 (BT-549 breast) | TGI (BT-549 breast) | GI50 (MDA-MB-231 breast) | TGI (MDA-MB-231 breast) | GI50 (RXF 393 renal) | TGI (RXF 393 renal) | GI50 (OVCAR-4 ovarian) | TGI (OVCAR-4 ovarian) | GI50 (NCI-H522 lung) | TGI (NCI-H522 lung) | TGI (SR leukemia) | TGI (SK-MEL-28 melanoma) | GI50 (SR leukemia) | GI50 (SK-MEL-28 melanoma)
1 | Cc1ccc(S(=O)(=O)NCCNc2nccc(-c3c(-c4ccc(F)cc4)nc4sccn34)n2)cc1 | 7.14 µM | 70.9 µM | 5.65 µM | 26.8 µM | 12.3 µM | 31 µM | 5.83 µM | 36 µM | 11 µM | > 100 µM | 4.02 µM | 29.4 µM | 4.98 µM | 46.7 µM | 6.95 µM | > 100 µM |  |  |  | 
2 | CC1(C)O/C(=C\c2ccccc2)C(=O)/C(=C/c2ccccc2)O1 |  | > 100 µM |  | > 100 µM |  | > 100 µM |  |  |  |  |  | 47.6 µM |  | > 100 µM |  | 22.5 µM | 75.3 µM | > 100 µM |  | 
3 | CCC(C)(C)c1ccc(OCCCCCCN2CCNCC2)cc1 | 2.85 µM | 8.36 µM | 1.73 µM | 3.23 µM | 1.85 µM | 3.65 µM |  |  | 1.44 µM | 3.11 µM | 1.47 µM | 2.92 µM | 1.96 µM | 5.03 µM | 2.23 µM | 5.67 µM | 3.71 µM | 3.77 µM | 1.25 µM | 1.74 µM
4 | CC1=NN(C(=O)CC(=O)N(C(=O)c2ccccc2Cl)c2ccc(C)cc2)C(=O)C1N=Nc1ccc([N+](=O)[O-])cc1 (stereo not drawn) |  | > 100 µM |  | > 68.5 µM |  | 51.4 µM |  |  |  |  |  | 77.5 µM |  | > 100 µM |  | > 100 µM | > 100 µM | > 100 µM |  | 
5 | C[n+]1cc(C(O)c2ccc3c(c2)OCO3)c2ccccc2c1 (stereo not drawn) |  |  |  | > 100 µM |  | > 100 µM |  |  |  |  |  | 62.5 µM |  |  |  | 48.1 µM |  |  |  | 
6 | C=C1C[C@]23CCC4C(C)(C)C(=O)CC[C@]4(C)C2C[C@H]1C(O)C3=O (stereo partly drawn) |  | > 75 µM |  | > 75 µM |  | > 75 µM |  |  |  |  |  | > 75 µM |  | > 75 µM |  | > 75 µM | > 75 µM | > 75 µM |  | 
7 | N.N.N.N.[Cl-].[Co+3].[N-]=[N+]=[N-].[N-]=[N+]=[N-] | > 100 µM | > 100 µM | > 100 µM | > 100 µM | 48.8 µM | > 100 µM |  |  |  |  |  |  | > 100 µM | > 100 µM | > 100 µM | > 100 µM |  | > 100 µM |  | 60.3 µM
8 | CCCCOC(=O)NC(=O)c1cn(CCCOC(=O)NCCCCCCNC(=O)OCCCn2cc(C(=O)NC(=O)OCCCC)c(=O)[nH]c2=O)c(=O)[nH]c1=O |  | > 100 µM |  | > 100 µM |  | > 100 µM |  |  |  |  |  | > 100 µM |  | > 100 µM |  | > 100 µM | > 100 µM | > 100 µM |  | 
9 | Cc1cc[c-]cc1.Fc1c[c-]c(-c2ccccn2)c(F)c1.[Pt+2].c1ccc(P(C[PH+](c2ccccc2)c2ccccc2)c2ccccc2)cc1 | 2.21 µM | 8.67 µM | 2.92 µM | 10.1 µM | 3.34 µM | 12.4 µM | 2.62 µM | 12.2 µM | 2.6 µM | 8.47 µM | 2.45 µM | 8.64 µM | 2.17 µM | 9.4 µM | 2.12 µM | 8.27 µM |  | 10.3 µM |  | 2.86 µM
10 | C[C@]12CC[C@H](O)C[C@H]1CC[C@@H]1[C@@H]2CC[C@]2(C)[C@@H](C3=CC(=O)OC3)CC[C@]12O |  |  | 0.0337 µM | 0.142 µM |  | 0.16 µM |  | 0.134 µM |  | > 62.2 µM |  | 0.0681 µM | 0.0389 µM | 0.226 µM |  | 0.436 µM |  | 2.01 µM |  | 
11 | CN(C)C(=S)/N=c1\ss/c(=N\C(=S)N(C)C)n1-c1ccc(Cl)c(Cl)c1 |  | > 100 µM |  | > 100 µM |  | > 100 µM |  |  |  |  |  | > 100 µM |  | > 100 µM |  | > 100 µM | > 100 µM | > 100 µM |  | 
12 | CN(CCCNC(=O)Cc1ccc2ccc3cccc4ccc1c2c34)CCCNc1cc(-c2ccc3ccccc3c2)nc2ccccc12 | 1.68 µM | 3.18 µM | 1.53 µM | 2.97 µM | 1.54 µM | 2.98 µM |  |  | 1.54 µM | 3.04 µM |  |  | 1.46 µM | 2.78 µM |  |  |  | 3.32 µM |  | 1.91 µM
13 | COc1ccc(C2c3cc(OC)c(OC)cc3C(Cc3ccc([N+](=O)[O-])cc3)C2c2ccc([N+](=O)[O-])cc2)cc1OC (stereo not drawn) |  | > 100 µM |  | > 100 µM |  | > 100 µM |  |  |  |  |  | > 100 µM |  | > 100 µM |  | > 100 µM |  | > 100 µM |  | 
14 | COC(=O)OCC1OC(N2C(=O)NC(=O)C(Br)C2N=[N+]=[N-])CC1OC(=O)OC (stereo not drawn) |  | > 100 µM |  | > 100 µM |  | > 100 µM |  |  |  |  |  | > 100 µM |  | > 100 µM |  | > 100 µM |  | > 100 µM |  | 
15 | O=c1[nH]c2cc(Cl)ccc2nc1/C(=N\O)C(O)c1ccc(Cl)cc1Cl (stereo not drawn) |  | > 100 µM |  | > 100 µM |  | > 100 µM |  |  |  |  |  | > 100 µM |  | > 100 µM |  | > 100 µM | > 100 µM | > 100 µM |  | 
16 | COc1cc(C)c2c(c1C)OC(=O)c1c(C)c(Cl)c(O)c(C=O)c1O2 |  | 32 µM |  | 24.6 µM |  | 26.6 µM |  |  |  |  |  |  |  |  |  |  | 31.9 µM |  |  | 
17 | CN[C@@H](C)[C@H](NC)c1ccccc1 |  | > 100 µM |  | > 100 µM |  | > 100 µM |  |  |  |  |  | > 100 µM |  |  |  | > 100 µM |  | > 100 µM |  | 
18 | Nc1ccn(C2(CO)C=C(CO)C(O)C2O)c(=O)n1 (stereo not drawn) |  |  |  | > 25.8 µM |  | > 25.8 µM |  |  |  |  |  | > 25.8 µM |  | > 25.8 µM |  | > 25.8 µM | > 25.8 µM | > 25.8 µM |  | 
19 | O=C1[C@H]2ON(c3ccccc3)C(c3ccc(Cl)cc3)[C@H]2C(=O)N1c1ccc(Cc2ccc(N3C(=O)[C@@H]4ON(c5ccccc5)C(c5ccc(Cl)cc5)[C@@H]4C3=O)cc2)cc1 (stereo partly drawn) |  | > 100 µM |  | > 100 µM |  | > 100 µM |  |  |  |  |  | > 100 µM |  | > 100 µM |  | > 100 µM | > 100 µM | > 100 µM |  | 
20 | Oc1cc(C2OCCCO2)cc(O)c1O |  | > 100 µM |  | > 100 µM |  | > 100 µM |  |  |  |  |  |  |  | > 100 µM |  | > 100 µM | > 100 µM | > 100 µM |  | 
21 | COc1cccc(-n2c3nc(=O)n(C)c(=O)c-3nc3ccccc32)c1 |  | 62 µM |  | > 100 µM |  | 27.8 µM |  |  |  |  |  |  |  | 25.2 µM |  | 97.5 µM |  | 61.4 µM |  | 
22 | Cc1cc(C)c(C2[C@H]3C(=O)N(c4ccc(Cc5ccc(N6C(=O)[C@@H]7ON(c8ccccc8)C(c8c(C)cc(C)cc8C)[C@@H]7C6=O)cc5)cc4)C(=O)[C@H]3ON2c2ccccc2)c(C)c1 (stereo partly drawn) |  | > 100 µM |  | > 100 µM |  | > 100 µM |  |  |  |  |  | > 100 µM |  | > 100 µM |  | > 100 µM | > 100 µM | > 100 µM |  | 
